Values of other authors in patent US9406119B2, “Estimating pharmacokinetic parameters in imaging” (INVICRO, LLC, priority 2010, dated 2016).

Assays:
[1] = biological target: T1, αvβ3 (Homo sapiens, UniProt P05106+P06756); details: parameter obtained from the literature
[2] = in vivo
[3] = biological target: T1, αvβ3; details: parameter obtained from the literature; remark: listed apart in the source

T1 sequence (P06756 31-889 limits assumed): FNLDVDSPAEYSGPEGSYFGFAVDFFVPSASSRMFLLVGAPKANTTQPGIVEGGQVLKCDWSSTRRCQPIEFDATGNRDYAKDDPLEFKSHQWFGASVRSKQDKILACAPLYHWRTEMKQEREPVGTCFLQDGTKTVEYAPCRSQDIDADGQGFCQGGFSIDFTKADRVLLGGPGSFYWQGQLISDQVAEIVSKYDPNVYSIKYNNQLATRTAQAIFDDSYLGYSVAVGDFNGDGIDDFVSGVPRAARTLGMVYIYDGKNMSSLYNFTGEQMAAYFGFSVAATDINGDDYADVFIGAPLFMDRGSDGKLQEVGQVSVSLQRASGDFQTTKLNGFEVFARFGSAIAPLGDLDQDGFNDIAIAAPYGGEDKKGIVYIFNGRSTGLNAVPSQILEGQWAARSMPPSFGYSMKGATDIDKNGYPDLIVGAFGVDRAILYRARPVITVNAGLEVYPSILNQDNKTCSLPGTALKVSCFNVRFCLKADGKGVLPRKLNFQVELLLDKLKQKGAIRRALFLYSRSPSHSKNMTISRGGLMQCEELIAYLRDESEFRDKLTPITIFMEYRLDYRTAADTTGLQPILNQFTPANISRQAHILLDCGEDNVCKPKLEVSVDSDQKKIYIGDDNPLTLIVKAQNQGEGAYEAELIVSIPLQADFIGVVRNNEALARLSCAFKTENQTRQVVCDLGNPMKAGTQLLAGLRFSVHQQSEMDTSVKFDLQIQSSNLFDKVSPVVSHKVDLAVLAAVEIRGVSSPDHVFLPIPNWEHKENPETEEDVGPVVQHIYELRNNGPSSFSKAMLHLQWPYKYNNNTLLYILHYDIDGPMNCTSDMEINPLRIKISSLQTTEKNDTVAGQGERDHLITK
T1 sequence (P06756 891-1048 partner limits assumed): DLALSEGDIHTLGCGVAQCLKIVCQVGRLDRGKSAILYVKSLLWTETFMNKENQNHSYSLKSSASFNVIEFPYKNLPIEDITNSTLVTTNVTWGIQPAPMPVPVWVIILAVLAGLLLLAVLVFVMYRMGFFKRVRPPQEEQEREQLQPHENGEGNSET
T1 sequence (P05106 27-788): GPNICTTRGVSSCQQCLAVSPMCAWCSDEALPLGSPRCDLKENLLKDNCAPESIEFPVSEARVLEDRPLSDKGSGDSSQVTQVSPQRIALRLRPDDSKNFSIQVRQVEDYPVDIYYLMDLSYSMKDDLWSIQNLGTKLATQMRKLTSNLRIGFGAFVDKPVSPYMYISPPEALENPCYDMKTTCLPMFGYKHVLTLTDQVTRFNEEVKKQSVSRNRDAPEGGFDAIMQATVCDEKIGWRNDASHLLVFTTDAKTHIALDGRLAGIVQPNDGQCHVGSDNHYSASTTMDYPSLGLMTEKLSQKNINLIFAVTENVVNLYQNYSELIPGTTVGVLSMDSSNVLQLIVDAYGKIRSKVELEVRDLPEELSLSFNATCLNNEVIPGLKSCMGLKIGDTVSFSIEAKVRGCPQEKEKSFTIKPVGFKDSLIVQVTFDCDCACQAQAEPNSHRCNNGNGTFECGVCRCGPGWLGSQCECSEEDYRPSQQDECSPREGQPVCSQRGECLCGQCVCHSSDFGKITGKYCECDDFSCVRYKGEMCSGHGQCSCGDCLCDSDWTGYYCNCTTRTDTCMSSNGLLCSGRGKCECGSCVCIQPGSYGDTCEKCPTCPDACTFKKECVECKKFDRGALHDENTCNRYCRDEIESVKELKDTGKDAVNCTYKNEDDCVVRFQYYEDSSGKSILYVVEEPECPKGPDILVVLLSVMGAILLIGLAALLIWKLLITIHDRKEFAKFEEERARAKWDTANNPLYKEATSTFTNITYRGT

^18F-galacto-RGD [^18F-galacto RGD]
koff (CA/antigen dissociation rate constant) [1]: 0.0008 s⁻¹
kon (CA/antigen association rate constant) [1]: 10^5 M^−1s^−1
Kd ([1]; read-out: KD=koff/kon): 8 nM
A (fraction of fast phase of plasma clearance) [2]: 0.82
B (fraction of slow phase of plasma clearance) [2]: 0.18
α (fast plasma clearance rate constant) [2]: 0.0026 s⁻¹
β (slow plasma clearance rate constant) [2]: 0.00014 s⁻¹
ke,B (internalization rate constant of the CA/antigen bound complex) [3]: 1.48e-05 s⁻¹
kresid (rate of release of CA or CA signal from the intracellular compartment) [3]: 1.6e-05 s⁻¹
